Measured values as given in article PMC4492758 (Pharmacology Research & Perspectives, 2015).
Values joined by “and” are separate entries in the source; they are usually repeats but may differ in a detail not shown here. Identical values can stand only once. “Also recorded” adds a separate entry of the source. Counter-ions that a name gives are not always drawn. Like-named read-outs stand apart in the source and are kept apart here. Marks after values point to notes of the source that are not given here.

Columns and labels:
[1] = tested on: dopamine extracellular levels in the rat frontal cortex; assay: Rat microdialysis, extracellular dopamine; assay type: in vivo; conditions: any dose (1, 3, 10 mg kg^−1 p.o.)
[2] = target: guinea pig serotonin 5-HT4 (Cavia porcellus, UniProt O70528); assay: Off-target radioligand binding assay; conditions: read-out: Percentage inhibition at 1 μmol/L
Human adrenergic α2B = Human adrenergic α2B (Homo sapiens, UniProt P18089); assay: Off-target radioligand binding assay; conditions: read-out: Percentage inhibition at 1 μmol/L
Human dopamine D1 = Human dopamine D1 (Homo sapiens, UniProt P21728); assay: Off-target radioligand binding assay; conditions: read-out: Percentage inhibition at 1 μmol/L
Human adrenergic α2C = Human adrenergic α2C (Homo sapiens, UniProt P18825); assay: Off-target radioligand binding assay; conditions: read-out: Percentage inhibition at 1 μmol/L
Human opiate δ = Human opiate δ (Homo sapiens, UniProt P41143); assay: Off-target radioligand binding assay; conditions: read-out: Percentage inhibition at 1 μmol/L
[3] = target: human monoamine oxidase -B (Homo sapiens, UniProt P27338); assay: Off-target enzyme assay, 14C-labeled substrate; assay type: biochemical; conditions: read-out: percent inhibition
Human serotonin 5-HT1B = Human serotonin 5-HT1B (Homo sapiens, UniProt P28222); assay: Off-target radioligand binding assay; conditions: read-out: Percentage inhibition at 1 μmol/L
Chain of Human serotonin 5-HT1B (P28222 whole entry): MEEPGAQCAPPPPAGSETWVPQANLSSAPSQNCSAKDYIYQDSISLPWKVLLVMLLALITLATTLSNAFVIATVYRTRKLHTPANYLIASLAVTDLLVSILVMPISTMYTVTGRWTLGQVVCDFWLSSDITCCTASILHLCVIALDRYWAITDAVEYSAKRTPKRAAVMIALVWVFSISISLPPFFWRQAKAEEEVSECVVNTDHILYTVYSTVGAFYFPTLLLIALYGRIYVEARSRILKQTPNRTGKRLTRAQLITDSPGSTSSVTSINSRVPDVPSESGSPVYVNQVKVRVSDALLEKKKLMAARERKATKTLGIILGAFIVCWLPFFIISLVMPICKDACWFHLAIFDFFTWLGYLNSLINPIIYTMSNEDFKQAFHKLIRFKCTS

Human opiate κ = Human opiate κ (Homo sapiens, UniProt P41145); assay: Off-target radioligand binding assay; conditions: read-out: Percentage inhibition at 1 μmol/L
Chain of Human opiate κ (P41145 whole entry): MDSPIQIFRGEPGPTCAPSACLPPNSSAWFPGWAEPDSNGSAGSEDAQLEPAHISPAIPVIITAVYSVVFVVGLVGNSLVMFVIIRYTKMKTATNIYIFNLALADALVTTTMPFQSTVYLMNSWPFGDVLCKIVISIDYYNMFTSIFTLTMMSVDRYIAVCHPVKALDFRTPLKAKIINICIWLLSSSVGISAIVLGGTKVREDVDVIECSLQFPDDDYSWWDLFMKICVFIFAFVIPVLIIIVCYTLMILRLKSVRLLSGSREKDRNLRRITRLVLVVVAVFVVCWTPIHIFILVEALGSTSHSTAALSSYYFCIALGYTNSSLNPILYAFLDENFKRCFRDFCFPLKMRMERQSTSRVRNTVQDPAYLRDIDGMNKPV

Human serotonin 5-HT6 = Human serotonin 5-HT6 (Homo sapiens, UniProt P50406); assay: Off-target radioligand binding assay; conditions: read-out: Percentage inhibition at 1 μmol/L
Chain of Human serotonin 5-HT6 (P50406 whole entry): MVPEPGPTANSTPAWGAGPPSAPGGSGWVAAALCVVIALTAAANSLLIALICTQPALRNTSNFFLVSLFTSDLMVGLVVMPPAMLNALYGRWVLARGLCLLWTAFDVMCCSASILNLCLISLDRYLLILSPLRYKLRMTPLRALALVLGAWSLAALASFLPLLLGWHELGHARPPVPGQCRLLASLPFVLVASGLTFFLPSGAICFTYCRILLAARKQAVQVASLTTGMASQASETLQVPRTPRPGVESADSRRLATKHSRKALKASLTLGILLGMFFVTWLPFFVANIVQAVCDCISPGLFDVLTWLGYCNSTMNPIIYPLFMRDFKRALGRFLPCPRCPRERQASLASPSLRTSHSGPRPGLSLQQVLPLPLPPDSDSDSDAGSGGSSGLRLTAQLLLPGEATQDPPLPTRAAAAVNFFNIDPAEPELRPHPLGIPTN

[4] = target: pig catechol-O-methyltransferase (Sus scrofa, UniProt Q99028); assay type: biochemical; conditions: read-out: percent inhibition
Human histamine H2 = Human histamine H2 (Homo sapiens, UniProt P25021); assay: Off-target radioligand binding assay; conditions: read-out: Percentage inhibition at 1 μmol/L
Human serotonin 5-HT2B = Human serotonin 5-HT2B (Homo sapiens, UniProt P41595); assay: Off-target radioligand binding assay
Chain of Human serotonin 5-HT2B (P41595 whole entry): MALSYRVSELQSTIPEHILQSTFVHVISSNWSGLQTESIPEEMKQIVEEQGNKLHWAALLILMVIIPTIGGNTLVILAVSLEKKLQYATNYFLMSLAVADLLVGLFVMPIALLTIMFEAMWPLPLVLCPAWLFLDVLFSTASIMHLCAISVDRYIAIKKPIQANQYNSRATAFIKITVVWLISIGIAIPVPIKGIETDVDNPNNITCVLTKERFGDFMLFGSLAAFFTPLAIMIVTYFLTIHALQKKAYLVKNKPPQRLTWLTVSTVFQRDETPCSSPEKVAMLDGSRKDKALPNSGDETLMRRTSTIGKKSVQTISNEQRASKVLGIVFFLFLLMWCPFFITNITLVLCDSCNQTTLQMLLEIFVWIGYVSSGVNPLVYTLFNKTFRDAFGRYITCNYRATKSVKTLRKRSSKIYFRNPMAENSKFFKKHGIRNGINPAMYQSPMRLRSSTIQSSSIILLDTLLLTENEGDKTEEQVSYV

rats [5] = assay: Rat forced swimming test; assay type: in vivo; conditions: vs vehicle
Human serotonin 5-HT3 = Human serotonin 5-HT3 (Homo sapiens, UniProt P46098); assay: Off-target radioligand binding assay; conditions: read-out: Percentage inhibition at 1 μmol/L
Human opiate μ = Human opiate μ (Homo sapiens, UniProt P35372); assay: Off-target radioligand binding assay; conditions: read-out: Percentage inhibition at 1 μmol/L
Human musucarinic M2 = Human musucarinic M2 (Homo sapiens, UniProt P08172); assay: Off-target radioligand binding assay; conditions: read-out: Percentage inhibition at 1 μmol/L
Human adrenergic β3 = Human adrenergic β3 (Homo sapiens, UniProt P13945); assay: Off-target radioligand binding assay; conditions: read-out: Percentage inhibition at 1 μmol/L
Human dopamine D3 = Human dopamine D3 (Homo sapiens, UniProt P35462); assay: Off-target radioligand binding assay
Chain of Human dopamine D3 (P35462 whole entry): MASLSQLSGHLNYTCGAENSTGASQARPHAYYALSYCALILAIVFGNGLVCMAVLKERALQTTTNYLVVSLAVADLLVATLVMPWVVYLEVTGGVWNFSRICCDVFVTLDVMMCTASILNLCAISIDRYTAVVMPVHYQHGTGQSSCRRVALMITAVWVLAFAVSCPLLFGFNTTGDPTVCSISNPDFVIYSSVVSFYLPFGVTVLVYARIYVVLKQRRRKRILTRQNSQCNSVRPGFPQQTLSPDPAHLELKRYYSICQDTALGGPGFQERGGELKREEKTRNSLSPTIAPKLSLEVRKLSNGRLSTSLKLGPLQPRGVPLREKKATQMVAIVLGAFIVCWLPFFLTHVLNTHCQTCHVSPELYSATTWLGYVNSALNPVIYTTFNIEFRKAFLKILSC

Human serotonin 5-HT2A = Human serotonin 5-HT2A (Homo sapiens, UniProt P28223); assay: Off-target radioligand binding assay; conditions: read-out: Percentage inhibition at 1 μmol/L
[6] = target: rat serotonin transporter (Rattus norvegicus, UniProt P31652); assay: Rat SERT binding, [3H]citalopram, rat cerebral cortex membranes
Human adrenergic α1A = Human adrenergic α1A (Homo sapiens, UniProt P35348); assay: Off-target radioligand binding assay
Chain of Human adrenergic α1A (P35348 whole entry): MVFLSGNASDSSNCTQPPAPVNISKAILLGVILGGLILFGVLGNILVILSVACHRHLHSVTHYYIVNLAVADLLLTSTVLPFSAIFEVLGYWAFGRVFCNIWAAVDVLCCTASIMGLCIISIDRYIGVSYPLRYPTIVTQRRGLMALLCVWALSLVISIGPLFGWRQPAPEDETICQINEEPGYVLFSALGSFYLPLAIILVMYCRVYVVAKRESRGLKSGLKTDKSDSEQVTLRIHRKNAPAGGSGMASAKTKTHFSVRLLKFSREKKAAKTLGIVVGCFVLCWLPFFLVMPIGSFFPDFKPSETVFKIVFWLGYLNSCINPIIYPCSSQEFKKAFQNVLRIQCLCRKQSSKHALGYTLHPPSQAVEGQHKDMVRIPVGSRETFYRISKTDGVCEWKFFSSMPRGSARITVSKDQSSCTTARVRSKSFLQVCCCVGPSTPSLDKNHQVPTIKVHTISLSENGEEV

Human musucarinic M1 = Human musucarinic M1 (Homo sapiens, UniProt P11229); assay: Off-target radioligand binding assay; conditions: read-out: Percentage inhibition at 1 μmol/L
Chain of Human musucarinic M1 (P11229 whole entry): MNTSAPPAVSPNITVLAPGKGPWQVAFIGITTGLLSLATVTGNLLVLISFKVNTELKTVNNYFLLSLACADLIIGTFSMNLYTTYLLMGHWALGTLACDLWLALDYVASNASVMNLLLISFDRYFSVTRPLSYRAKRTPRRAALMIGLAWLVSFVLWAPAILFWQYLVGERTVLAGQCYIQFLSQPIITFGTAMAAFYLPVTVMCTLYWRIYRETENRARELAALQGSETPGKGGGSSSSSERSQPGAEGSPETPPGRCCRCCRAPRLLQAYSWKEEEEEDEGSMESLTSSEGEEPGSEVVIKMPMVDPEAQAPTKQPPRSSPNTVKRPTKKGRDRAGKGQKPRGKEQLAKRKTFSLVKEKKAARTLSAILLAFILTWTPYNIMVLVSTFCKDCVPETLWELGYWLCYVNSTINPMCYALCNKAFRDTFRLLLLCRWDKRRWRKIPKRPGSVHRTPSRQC

[7] = tested on: extracellular 5-HT levels in the rat frontal cortex; assay: Rat microdialysis, extracellular 5-HT; assay type: in vivo; conditions: for maximum increase of 5-HT extracellular levels, % of baseline value: 100 min after administration, mean ± SEM
Human adrenergic α1B = Human adrenergic α1B (Homo sapiens, UniProt P35368); assay: Off-target radioligand binding assay; conditions: read-out: Percentage inhibition at 1 μmol/L
Human adrenergic β1 = Human adrenergic β1 (Homo sapiens, UniProt P08588); assay: Off-target radioligand binding assay; conditions: read-out: Percentage inhibition at 1 μmol/L
Chain of Human adrenergic β1 (P08588 whole entry): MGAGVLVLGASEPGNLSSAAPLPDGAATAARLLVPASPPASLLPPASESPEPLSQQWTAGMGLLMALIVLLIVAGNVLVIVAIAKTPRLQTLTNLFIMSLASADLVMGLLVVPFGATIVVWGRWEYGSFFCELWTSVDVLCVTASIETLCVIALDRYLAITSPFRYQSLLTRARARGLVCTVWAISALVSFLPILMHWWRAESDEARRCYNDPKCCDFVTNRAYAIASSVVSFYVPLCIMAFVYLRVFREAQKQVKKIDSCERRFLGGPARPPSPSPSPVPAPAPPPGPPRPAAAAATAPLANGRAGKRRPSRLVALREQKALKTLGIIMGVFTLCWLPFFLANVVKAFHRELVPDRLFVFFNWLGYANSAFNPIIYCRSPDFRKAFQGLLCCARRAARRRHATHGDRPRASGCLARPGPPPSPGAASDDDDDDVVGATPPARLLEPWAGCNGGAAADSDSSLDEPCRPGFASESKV

[8] = target: human monoamine oxidase-A (Homo sapiens, UniProt P21397); assay: Off-target enzyme assay, 14C-labeled substrate; assay type: biochemical; conditions: read-out: percent inhibition
Rat GABAA = assay: Off-target radioligand binding assay; conditions: [3H] Flunitrazepam 0.88 nmol/L
Human adrenergic β2 = Human adrenergic β2 (Homo sapiens, UniProt P07550); assay: Off-target radioligand binding assay; conditions: read-out: Percentage inhibition at 1 μmol/L
Human serotonin 5-HT7 = Human serotonin 5-HT7 (Homo sapiens, UniProt P34969); assay: Off-target radioligand binding assay
Chain of Human serotonin 5-HT7 (P34969 whole entry): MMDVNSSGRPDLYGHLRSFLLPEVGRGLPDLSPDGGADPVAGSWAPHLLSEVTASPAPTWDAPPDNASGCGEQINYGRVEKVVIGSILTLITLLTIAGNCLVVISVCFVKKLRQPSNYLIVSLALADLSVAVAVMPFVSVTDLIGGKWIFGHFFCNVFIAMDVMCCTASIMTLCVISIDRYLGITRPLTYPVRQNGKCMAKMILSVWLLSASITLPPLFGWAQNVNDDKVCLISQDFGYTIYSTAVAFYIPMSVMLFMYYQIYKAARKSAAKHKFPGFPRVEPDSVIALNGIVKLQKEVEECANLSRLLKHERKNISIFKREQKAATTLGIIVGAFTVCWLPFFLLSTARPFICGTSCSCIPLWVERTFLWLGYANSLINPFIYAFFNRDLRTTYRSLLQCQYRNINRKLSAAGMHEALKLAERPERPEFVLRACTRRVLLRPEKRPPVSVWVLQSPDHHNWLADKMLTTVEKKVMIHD

Human serotonin 5-HT5A = Human serotonin 5-HT5A (Homo sapiens, UniProt P47898); assay: Off-target radioligand binding assay; conditions: read-out: Percentage inhibition at 1 μmol/L
Suncus murinus [9] = conditions: 60 mg kg^−1 po, 19 animals per group
Human serotonin 5-HT2C = Human serotonin 5-HT2C (Homo sapiens, UniProt P28335); assay: Off-target radioligand binding assay; conditions: read-out: Percentage inhibition at 1 μmol/L
[10] = tested on: sham-operated and olfactory bulbectomized rats; assay: Olfactory bulbectomy model, open-field test; assay type: in vivo, rat
Suncus murinus [11] = assay: Evaluation of emesis in Suncus murinus, experiment 1; assay type: in vivo; conditions: for Number of animals vomited/tested: single dose, 60 min observation; for Total emetic episode: 1 h observation, animals that vomited
[12] = tested on: sham-operated and olfactory bulbectomized rats; assay: Olfactory bulbectomy model, emotional scoring; assay type: in vivo, rat
Human histamine H1 = Human histamine H1 (Homo sapiens, UniProt P35367); assay: Off-target radioligand binding assay
Chain of Human histamine H1 (P35367 whole entry): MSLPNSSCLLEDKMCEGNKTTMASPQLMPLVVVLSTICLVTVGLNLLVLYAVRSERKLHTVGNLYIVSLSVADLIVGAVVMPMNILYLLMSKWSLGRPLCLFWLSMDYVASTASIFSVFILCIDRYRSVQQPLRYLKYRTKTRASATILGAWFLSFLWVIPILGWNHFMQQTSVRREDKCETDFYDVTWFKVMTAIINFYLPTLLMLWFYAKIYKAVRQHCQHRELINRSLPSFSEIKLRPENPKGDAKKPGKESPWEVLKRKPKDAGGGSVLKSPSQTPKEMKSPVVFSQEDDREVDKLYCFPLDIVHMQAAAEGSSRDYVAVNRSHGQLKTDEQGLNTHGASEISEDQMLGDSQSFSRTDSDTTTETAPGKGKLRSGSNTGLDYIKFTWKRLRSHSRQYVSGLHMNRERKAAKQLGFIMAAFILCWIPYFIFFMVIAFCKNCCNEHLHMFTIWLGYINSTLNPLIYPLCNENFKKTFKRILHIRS

rats [13] = assay: Conditioned taste aversion test in rats; conditions: 100 mg kg^−1; Day 4, 24 h after administration, vs vehicle
Human adrenergic α2A = Human adrenergic α2A (Homo sapiens, UniProt P08913); assay: Off-target radioligand binding assay; conditions: read-out: Percentage inhibition at 1 μmol/L
Chain of Human adrenergic α2A (P08913 whole entry): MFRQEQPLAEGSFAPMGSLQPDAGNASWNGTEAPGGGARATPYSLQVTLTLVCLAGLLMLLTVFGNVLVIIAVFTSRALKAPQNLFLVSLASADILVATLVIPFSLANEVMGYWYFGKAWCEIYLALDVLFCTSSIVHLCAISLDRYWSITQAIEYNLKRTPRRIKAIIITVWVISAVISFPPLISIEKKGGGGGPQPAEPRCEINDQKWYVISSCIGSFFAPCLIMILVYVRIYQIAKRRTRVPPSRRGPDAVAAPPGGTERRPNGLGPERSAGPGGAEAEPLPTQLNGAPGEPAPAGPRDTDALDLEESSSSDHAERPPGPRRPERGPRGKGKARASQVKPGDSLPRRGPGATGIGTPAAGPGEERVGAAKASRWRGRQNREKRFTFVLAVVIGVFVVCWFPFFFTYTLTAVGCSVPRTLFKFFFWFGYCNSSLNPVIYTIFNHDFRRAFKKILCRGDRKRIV

[14] = Pharmacokinetics of DSP-1053 in male rats; assay type: in vivo; conditions: Crl:CD(SD), rat, plasma
Human dopamine D2L = Human dopamine D2L (Homo sapiens, UniProt P14416); assay: Off-target radioligand binding assay; conditions: read-out: Percentage inhibition at 1 μmol/L
Suncus murinus [15] = conditions: ref Mine et al. [2013], cited from earlier work; for Number of animals vomited/tested: single dose
human 5-HT1A receptor = human 5-HT1A receptor (Homo sapiens, UniProt P08908); assay: biochemical; conditions: read-out: I.A. (intrinsic activity), GTPγS binding
[16] = read-out: Percentage inhibition at 1 μmol/L
[17] = olfactory bulbectomized animals, 0.3, 1 and 3 mg/kg, 1- and 2-week administration
[18] = sham-operated animals, 0.3, 1 and 3 mg/kg, 1- and 2-week administration
[19] = 1-week administration, vs vehicle
[20] = sham-operated animals, 2-week administration

Which results are given for `COCCOc1cc(CC2CCN(CCc3ccc4c(c3)C(=O)CCO4)CC2)ccc1Br.O=S(=O)(O)c1ccccc1` [DSP-1053, 6-(2-{4-[4-Bromo-3-(2-methoxyethoxy)benzyl]piperidin-1-yl}ethyl)-2,3-dihydro-4H-chromen-4-one benzenesulfonate]?
dopamine extracellular levels in the rat frontal cortex [1]: did not affect; inhibition at 1 µM [2]: 26%; inhibition at 1 µM (Human adrenergic α2B): 6%; inhibition at 1 µM (Human dopamine D1): 4%; inhibition at 1 µM (Human adrenergic α2C): 41%; inhibition at 1 µM (Human opiate δ): 10%; inhibition at 1 µM [3]: 0.19%; inhibition at 1 µM (Human serotonin 5-HT1B): 47%; inhibition at 1 µM (Human opiate κ): 0%; inhibition at 1 µM (Human serotonin 5-HT6): 14%; inhibition at 1 µM [4]: 0%; inhibition at 1 µM (Human histamine H2): 37%; Ki (Human serotonin 5-HT2B): 117 ± 28 nM; inhibition at 1 µM (Human serotonin 5-HT2B; [16]): 79%; immobility time (rats [5]; 2-week consecutive administration, 1 mg kg^−1 p.o.): significantly decreased; immobility time (rats [5]; 2-week consecutive administration, 1 mg kg^−1 p.o., listed as DSR-1053): significantly reduced; inhibition at 1 µM (Human serotonin 5-HT3): 0%; inhibition at 1 µM (Human opiate μ): 2%; inhibition at 1 µM (Human musucarinic M2): 21%; inhibition at 1 µM (Human adrenergic β3): 19%; Ki (Human dopamine D3): 249 ± 21 nM; inhibition at 1 µM (Human dopamine D3; [16]): 65%; inhibition at 1 µM (Human serotonin 5-HT2A): 35%; Ki [6]: 0.489 ± 0.039 nM; Ki (Human adrenergic α1A): 528 ± 45 nM; inhibition at 1 µM (Human adrenergic α1A; [16]): 57%; inhibition at 1 µM (Human musucarinic M1): 9%; maximum increase of 5-HT extracellular levels, % of baseline value ([7]; 3 mg kg^−1 p.o.): 180 ± 25.9%; maximum increase of 5-HT extracellular levels, % of baseline value ([7]; 10 mg kg^−1 p.o.): 264 ± 58.0%; extracellular 5-HT levels ([7]; given once at 3 and 10 mg kg^−1): dose-dependently increased; inhibition at 1 µM (Human adrenergic α1B): 1%; inhibition at 1 µM (Human adrenergic β1): 14%; inhibition at 1 µM [8]: 5.28%; Percentage inhibition at 1 μmol/L (Rat GABAA): 8%; inhibition at 1 µM (Human adrenergic β2): 22%; Ki (Human serotonin 5-HT7): 288 ± 35 nM; inhibition at 1 µM (Human serotonin 5-HT7; [16]): 73%; inhibition at 1 µM (Human serotonin 5-HT5A): 2%; number of animals that showed emesis on the first day, of 19 animals (Suncus murinus [9]): 9; inhibition at 1 µM (Human serotonin 5-HT2C): 20%; number of line crosses [10, 17]: reduced; also recorded: significant decrease; number of line crosses [10, 18]: no effect; Number of animals vomited/tested (Suncus murinus [11]; 10 mg kg^−1 po): 0 and 0/6; Number of animals vomited/tested (Suncus murinus [11]; 30 mg kg^−1 po): 1 and 1/6; Total emetic episode (Suncus murinus [11]; 30 mg kg^−1 po): 2; Number of animals vomited/tested (Suncus murinus [11]; 60 mg kg^−1 po): 3 and 3/6; Total emetic episode (Suncus murinus [11]; 60 mg kg^−1 po, mean ± SEM): 5.3 ± 1.0; emotional scores [12, 17]: reduced; also recorded: significant decrease; emotional scores [12, 18]: no effect; Ki (Human histamine H1): 7.46 ± 0.2 nM; inhibition at 1 µM (Human histamine H1; [16]): 93%; saccharin consumption (rats [13]): significantly inhibited; inhibition at 1 µM (Human adrenergic α2A): 26%; clearance ([14]; iv, 1 mg/kg): 57.6 mL/min/kg; Tmax ([14]; po, 10 mg/kg): ≤ 1 h; inhibition at 1 µM (Human dopamine D2L): 35%

With `Fc1ccc([C@@H]2CCNC[C@H]2COc2ccc3c(c2)OCO3)cc1` [Paroxetine, paroxetine hydrochloride, reference compound] as the compound, how does the “Number of animals vomited/tested” value (Suncus murinus [15]; 10 mg kg^−1 po) read?
Its value is 0/6.

And the “Number of animals vomited/tested” value (Suncus murinus [15]; 10 mg kg^−1 po, listed as paroxetine)?
The value was 0.

What about the “Number of animals vomited/tested” value (Suncus murinus [15]; 30 mg kg^−1 po) of the same compound?
Its value is 2/6.

And the “Number of animals vomited/tested” value (Suncus murinus [15]; 30 mg kg^−1 po, listed as paroxetine)?
The value was 2.

And the Total emetic episode (Suncus murinus [15]; 30 mg kg^−1 po, 1 h observation, animals that vomited)?
The Total emetic episode was 6.8.

What about the “Number of animals vomited/tested” value (Suncus murinus [15]; 60 mg kg^−1 po) of the same compound?
Its value is 6/6 ^*.

And the “Number of animals vomited/tested” value (Suncus murinus [15]; 60 mg kg^−1 po, listed as paroxetine)?
The value was 6.

What about the immobility time (rats [5]; 2-week administration) of the same compound?
The immobility time was “no effect”.

And the immobility time (rats [5]; 3-week administration, 3 and 10 mg kg^−1 p.o.)?
Its immobility time is “reduced immobility time”.

What about the “number of animals that showed emesis on the first day, of 19 animals” value (Suncus murinus [9]) of the same compound?
Its value is 12.

What about the “number of line crosses” value [10, 19] of the same compound?
The value was “did not alter”.

And the “number of line crosses” value ([10]; olfactory bulbectomized animals, 10 mg/kg, 2-week administration)?
The value was “significant decrease”.

What about the “number of line crosses” value [10, 20] of the same compound?
Its value is “no effect”.

What about the emotional scores [12, 19] of the same compound?
The emotional scores was “did not alter”.

What about the emotional scores ([12]; olfactory bulbectomized animals, 3 and 10 mg/kg, 2-week administration) of the same compound?
Its emotional scores is “significant decrease”.

And the emotional scores [12, 20]?
The emotional scores was “no effect”.

With `CC(C)NCC(O)COc1cccc2[nH]ccc12` (stereo not shown) [Pindolol, pindolol] as the compound, how does the Emax (human 5-HT1A receptor) read?
Its Emax is 13.3 ± 3.8%.
